The text below walks through data of US20040076586A1, “Compositions and methods for delivering pharmaceutically active agents using nanoparticulates” (priority 2002, published 2004).

Take `CCOC(=O)CCCCCOC(=O)c1c(I)c(NC(C)=O)c(I)c(NC(C)=O)c1I` [PH-50, 6-ethoxy-6-oxohexy-3,5-bis(acetylamino)-2,4,6-triiodobenzoate]: the “half-life in the vascular structures” value (at functionally active concentrations, until metabolized by the liver) lay in the range of 30 to 60 min. Besides, the route of excretion result (in vivo) was “excreted from the body via the hepatic system rather than the renal system”.
